Holding throughout (assay): relative viability (nuclei count vs DMSO), 5 days (fraction); higher = more cells survive
Compound in assay [1]: C[C@H]([C@@H](C(=O)N)NC(=O)[C@@H]1CSSC[C@@H](C(=O)N[C@H](C(=O)N[C@@H](C(=O)N[C@H](C(=O)N1)CCCCN)CC2=CNC3=CC=CC=C32)CC4=CC=C(C=C4)O)NC(=O)[C@@H](CC5=CC=CC=C5)N)O [CAP-232] + Nc1nc2[nH]cc(CCc3ccc(C(=O)N[C@@H](CCC(=O)O)C(=O)O)cc3)c2c(=O)[nH]1 [Pemetrexed] (partner 0.2 µM)
The method in brief: (§1)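 After 5 days of treatment, lung cancer cells in 1536-well plates were fixed and stained in a single step (final 0.05% Triton X-100, 1% formaldehyde, 1 ug/ml Hoechst) and their nuclei counted on 4× images. Treatment had been applied by pin tool the day after seeding as one drug alone or as a fixed anchor-drug dose with five library-drug doses (not always all listed) in √10 steps. Relative viability is the nuclei count of treated wells divided by that of vehicle wells, and values are medians of duplicate plates.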

Compound in assay [2]: C[C@H]([C@@H](C(=O)N)NC(=O)[C@@H]1CSSC[C@@H](C(=O)N[C@H](C(=O)N[C@@H](C(=O)N[C@H](C(=O)N1)CCCCN)CC2=CNC3=CC=CC=C32)CC4=CC=C(C=C4)O)NC(=O)[C@@H](CC5=CC=CC=C5)N)O [CAP-232] + Nc1ncn([C@H]2C[C@H](O)[C@@H](CO)O2)c(=O)n1 [Decitabine] (partner 2 µM)
The method in brief:
as §1

Compound in assay [3]: C[C@H]([C@@H](C(=O)N)NC(=O)[C@@H]1CSSC[C@@H](C(=O)N[C@H](C(=O)N[C@@H](C(=O)N[C@H](C(=O)N1)CCCCN)CC2=CNC3=CC=CC=C32)CC4=CC=C(C=C4)O)NC(=O)[C@@H](CC5=CC=CC=C5)N)O [CAP-232] + CC(C)C[C@H](NC(=O)[C@H](Cc1ccccc1)NC(=O)c1cnccn1)B(O)O [Bortezomib] (partner 0.002 µM)
The method, boiled down:
as §1

Compound in assay [4]: C[C@H]([C@@H](C(=O)N)NC(=O)[C@@H]1CSSC[C@@H](C(=O)N[C@H](C(=O)N[C@@H](C(=O)N[C@H](C(=O)N1)CCCCN)CC2=CNC3=CC=CC=C32)CC4=CC=C(C=C4)O)NC(=O)[C@@H](CC5=CC=CC=C5)N)O [CAP-232] + C[C@@H](Oc1cc(-c2cnn(C3CCNCC3)c2)cnc1N)c1c(Cl)ccc(F)c1Cl [Crizotinib] (partner 1 µM)
The method, boiled down:
as §1

Compound in assay [5]: C[C@H]([C@@H](C(=O)N)NC(=O)[C@@H]1CSSC[C@@H](C(=O)N[C@H](C(=O)N[C@@H](C(=O)N[C@H](C(=O)N1)CCCCN)CC2=CNC3=CC=CC=C32)CC4=CC=C(C=C4)O)NC(=O)[C@@H](CC5=CC=CC=C5)N)O [CAP-232] + COc1cccc2cc(-c3nc([C@H]4CC[C@H](C(=O)O)CC4)n4ncnc(N)c34)[nH]c12 [OSI-027] (partner 0.5 µM)
The method, boiled down: as §1

On to LOU-NH91, for which the relative viability amounted to 0.473 in assay [1] (first compound 0.4 µM); 0.378 in assay [1] (first compound 1.265 µM); 0.392 in assay [1] (first compound 4 µM); 0.275 in assay [1] (first compound 12.65 µM); 0.787 in assay [2] (first compound 0.4 µM); 0.787 in assay [2] (first compound 1.265 µM). In addition, the relative viability worked out at 0.8 in assay [2] (first compound 4 µM); 0.594 in assay [2] (first compound 12.65 µM); 0.528 in assay [3] (first compound 0.4 µM); 0.458 in assay [3] (first compound 1.265 µM); 0.463 in assay [3] (first compound 4 µM); 0.549 in assay [3] (first compound 12.65 µM). Besides, the relative viability in assay [4] (first compound 0.4 µM) turned out to be 0.748; in assay [4] (first compound 1.265 µM), 0.76; in assay [4] (first compound 4 µM), 0.921; in assay [4] (first compound 12.65 µM), 0.705; in assay [5] (first compound 0.4 µM) it was 0.756; in assay [5] (first compound 1.265 µM) it was 0.775. The relative viability in assay [5] (first compound 4 µM) came to 0.72; in assay [5] (first compound 12.65 µM) it was 0.675.
Regarding LU99A, the relative viability turned out to be 0.181 in assay [1] (first compound 0.4 µM); 0.139 in assay [1] (first compound 1.265 µM); 0.182 in assay [1] (first compound 4 µM); 0.177 in assay [1] (first compound 12.65 µM); 0.861 in assay [2] (first compound 0.4 µM); 0.806 in assay [2] (first compound 1.265 µM). Moreover, the relative viability in assay [2] (first compound 4 µM) came to 1.1; in assay [2] (first compound 12.65 µM), 0.973; in assay [3] (first compound 0.4 µM) it was 1.14; in assay [3] (first compound 1.265 µM), 1.1; in assay [3] (first compound 4 µM), 1.18; in assay [3] (first compound 12.65 µM), 1.05. In addition, the relative viability came out at 0.486 in assay [4] (first compound 0.4 µM); 0.652 in assay [4] (first compound 1.265 µM); 0.513 in assay [4] (first compound 4 µM); 0.561 in assay [4] (first compound 12.65 µM); 0.263 in assay [5] (first compound 0.4 µM); 0.267 in assay [5] (first compound 1.265 µM). Also, the values for the relative viability in assay [5] (first compound 4 µM) and in assay [5] (first compound 12.65 µM) were 0.276 and 0.313, respectively.
As to LXF-289, the relative viability was 1.05 in assay [1] (first compound 0.4 µM); 0.839 in assay [1] (first compound 1.265 µM); 0.904 in assay [1] (first compound 4 µM); 0.958 in assay [1] (first compound 12.65 µM); 0.331 in assay [2] (first compound 0.4 µM); 0.36 in assay [2] (first compound 1.265 µM). The relative viability was found to be 0.391 in assay [2] (first compound 4 µM); 0.343 in assay [2] (first compound 12.65 µM); 1.06 in assay [3] (first compound 0.4 µM); 0.976 in assay [3] (first compound 1.265 µM); 0.975 in assay [3] (first compound 4 µM); 1 in assay [3] (first compound 12.65 µM). The relative viability in assay [4] (first compound 0.4 µM) amounted to 0.843; in assay [4] (first compound 1.265 µM) it was 0.803; in assay [4] (first compound 4 µM), 0.784; in assay [4] (first compound 12.65 µM), 0.841; in assay [5] (first compound 0.4 µM), 0.824; in assay [5] (first compound 1.265 µM), 0.721. Further, the relative viability in assay [5] (first compound 4 µM) stood at 0.805; in assay [5] (first compound 12.65 µM), 0.741.

For the origin of these results see the supplement of paper PMC10307832.
